In patent US6491922B1, “Methods and compounds for treating autoimmune and vascular disease” (Cornell Research Foundation, Inc., priority 1996, dated 2002):

Assays:
[1] = test system: human umbilical vein endothelial cells; test: Competition for LPG binding by LPG fragments (FACS); conditions: for competition with intact LPG for binding to endothelial cells: fragment 10 μM prior to intact LPG 1 μM; for Percent Inhibition: pretreatment with fragment 10 μM 15 min before intact LPG 1 μM, 15 min, 37° C., means ± SE of 3 experiments
Description: To address whether the lyso-PI and core-PI fragments may mediate cell binding, an indirect approach was used. Endothelial cells (10^6/ml) obtained by mild collagenase treatment were first incubated with either lyso-PI or core-PI (10 μM, 15 min 37° C.) prior to the addition of intact LPG (1 μM, 15 min 37° C.); PGM and PG (10 μM, 15 min 37° C.) were used as controls. Cells were washed, after incubation with anti-LPG mAb as described above (Indirect Immunofluorescence) and subjected to FACS analysis by binding of the intact LPG.

endothelial cells [2] = test: Endothelial adhesion to monocytes (MM6) assay; conditions: for inhibition of endotoxin-mediated endothelial adhesion to monocytes by LPG fragments: fragments 1-10 μM (2 μM, 1 h in FIG. 21), endotoxin 10 ng/ml 4 h
Description: Endothelial cell were isolated from human umbilical veins by an established method as described. […] In all experiments, 2-4 passages of subcultured endothelial cells were used and were grown on fibronectin-precoated 96-well plates for 2-3 days prior to use.
On the day of the experiment, endothelial cells were treated with endotoxin (E. coli, J5, 10 ng/ml) for 4 h. MM6 (1×10^5 cells) were subsequently added to the endotoxin-stimulated endothelial cells. Monocyte adhesion was performed for 20 min at 37° C. Unbound MM6 cells were removed by washing (3×). Adhesion of MM6 onto endothelium was quantitated by counting the bound MM6 cells under a microscope. […] The values of triplicates were averaged, and variations between triplicates were <5%. […] For experiments to examine if LPG could inhibit endotoxin-mediated monocyte adhesion, the endothelial cells were first preincubated with LPG (2 μM) for 1-2 h at 37° C. prior to the addition of endotoxin.

endothelial cells [3] = test: ^3H-lyso-PI binding to endothelial cells; parameters: species or system human; conditions: 1 μM, 45 min, 25° C.; 10^6 cells per ml
Description: To evaluate whether lyso-PI may directly bind to endothelial cells, endothelial cells (10^6 per ml) were incubated with ^3H-lyso-PI (1 μM [specific activity, ˜10,000 cpm/nmole], 45 min, 25° C.). As a control, endothelial cells were pretreated with LPG (20 μM, 15 min, 25° C.) before the incubation with ^3H-lyso-PI. Following incubation, the cell suspension was layed onto silicone oil (Silicones FC-50, General Electric, Waterford, N.Y.) and cell-bound ^3H-lyso-PI was separated from free-^3H-lyso-PI by centrifugation (10,000 g, 10 min, room temperature). The amount of ^3H-lyso-PI in the cell pellet and in the supernatant were solubilized in Ecoscint (National Diagnostics, Highland Park, N.J.) and quantitated by a β-emission counter (Beckman Instruments, Palo Alto, Calif.).

Row | Substance | competition with intact LPG for binding to endothelial cells [1] [%] | Percent Inhibition [1] [%] | inhibitory effect of co-addition of fragments (endothelial cells [2]; co-addition of PG (2 μM) and core-PI (2 μM)) | inhibition of endotoxin-mediated endothelial adhesion to monocytes by LPG fragments (endothelial cells [2]) | ^3H-lyso-PI bound, of the total input ^3H-lyso-PI (endothelial cells [3]) [%]
1 | phosphosaccharide core-lyso-alkyl-phosphatidylinositol [core-PI] | ~30 | 32.0 ± 5.0 | No additive inhibitory effect | did not inhibit | –
2 | lyso-alkyl-phosphatidylinositol [lyso-PI] | ~30 | 29.9 ± 6.0 | – | did not inhibit | –
3 | ^3H-Lyso-alkyl-PI [^3H-lyso-PI, reference compound] | – | – | – | – | 32.2±3.1
